Measurements published in patent US7091202B2, “4-arylspirocycloalkyl-2-aminopyrimidine carboxamide KCNQ potassium channel modulators” (Bristol-Myers Squibb Company, priority 2004, dated 2006).

target: T1, hQ23 (HEK-293 cell line stably transfected with one of the members of the KCNQ family) (Homo sapiens, UniProt O43525+O43526); assay: Thallium flux assay for KCNQ channel blockers (FLIPR, BTC dye); type: cell-based; details: hQ23 cells, thallium flux
T1 construct: expressed in transfected cells; host or cells: HEK-293, stably transfected
T1 sequence (O43526 whole entry): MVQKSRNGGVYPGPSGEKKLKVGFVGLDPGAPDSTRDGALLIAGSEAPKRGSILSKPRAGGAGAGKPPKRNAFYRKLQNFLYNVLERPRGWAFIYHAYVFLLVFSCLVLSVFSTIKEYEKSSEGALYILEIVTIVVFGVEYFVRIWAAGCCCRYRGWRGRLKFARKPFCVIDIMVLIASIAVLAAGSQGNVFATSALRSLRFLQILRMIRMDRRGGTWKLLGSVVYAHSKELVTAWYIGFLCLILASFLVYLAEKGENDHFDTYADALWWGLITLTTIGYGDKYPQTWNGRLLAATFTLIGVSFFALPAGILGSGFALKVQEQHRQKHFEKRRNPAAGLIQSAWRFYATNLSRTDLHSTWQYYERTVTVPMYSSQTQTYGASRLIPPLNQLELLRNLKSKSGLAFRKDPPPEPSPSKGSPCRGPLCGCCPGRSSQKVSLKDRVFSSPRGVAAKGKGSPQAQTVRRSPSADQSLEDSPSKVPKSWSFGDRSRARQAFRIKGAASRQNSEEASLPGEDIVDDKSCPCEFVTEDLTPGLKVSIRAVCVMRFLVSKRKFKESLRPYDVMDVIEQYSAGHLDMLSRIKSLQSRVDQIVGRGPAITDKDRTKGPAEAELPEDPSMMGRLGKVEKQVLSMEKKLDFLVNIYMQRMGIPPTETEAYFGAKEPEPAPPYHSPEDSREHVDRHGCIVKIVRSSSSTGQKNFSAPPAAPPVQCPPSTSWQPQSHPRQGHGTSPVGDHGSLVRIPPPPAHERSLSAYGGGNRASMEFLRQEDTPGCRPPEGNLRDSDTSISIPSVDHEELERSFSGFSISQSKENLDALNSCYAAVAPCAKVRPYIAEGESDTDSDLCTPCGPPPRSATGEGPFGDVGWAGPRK
T1 sequence (O43525 whole entry): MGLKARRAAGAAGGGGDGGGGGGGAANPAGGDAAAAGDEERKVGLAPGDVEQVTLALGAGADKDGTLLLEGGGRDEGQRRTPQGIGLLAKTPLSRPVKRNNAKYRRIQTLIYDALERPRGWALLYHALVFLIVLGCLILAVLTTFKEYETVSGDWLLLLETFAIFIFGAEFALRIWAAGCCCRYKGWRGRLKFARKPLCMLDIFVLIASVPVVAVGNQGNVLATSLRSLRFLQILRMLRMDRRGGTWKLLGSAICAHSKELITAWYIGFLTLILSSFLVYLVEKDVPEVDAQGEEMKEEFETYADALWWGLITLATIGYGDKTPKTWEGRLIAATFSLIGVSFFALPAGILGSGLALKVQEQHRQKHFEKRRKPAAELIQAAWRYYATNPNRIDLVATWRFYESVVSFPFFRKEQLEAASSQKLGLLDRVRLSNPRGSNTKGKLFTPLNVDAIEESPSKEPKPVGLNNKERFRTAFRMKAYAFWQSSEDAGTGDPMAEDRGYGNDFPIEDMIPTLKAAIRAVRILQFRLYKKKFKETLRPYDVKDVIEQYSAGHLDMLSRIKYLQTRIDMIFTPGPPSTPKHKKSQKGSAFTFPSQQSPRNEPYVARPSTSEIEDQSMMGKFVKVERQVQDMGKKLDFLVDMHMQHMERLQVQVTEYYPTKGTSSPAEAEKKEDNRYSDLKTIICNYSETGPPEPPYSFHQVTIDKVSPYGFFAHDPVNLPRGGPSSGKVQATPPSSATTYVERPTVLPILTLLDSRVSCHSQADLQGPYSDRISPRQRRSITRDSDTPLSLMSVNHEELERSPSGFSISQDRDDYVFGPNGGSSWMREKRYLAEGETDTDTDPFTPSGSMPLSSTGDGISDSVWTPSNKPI
In short: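 FLIPR thallium flux readout (BTC dye, 2 μM AM ester) in stably transfected KCNQ HEK-293 cells, chloride-free HEPES buffer pH 7.3, Tl2SO4 stimulus. IC50s were fitted with a single-site logistic equation across 10 points at 1:3 dilutions, defined as 50% of positive-control block; minimal active concentration meant signal ≥4 SD over DMSO controls.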

EC50 | SMILES
873 nM | CC1CCC(Nc2ncc(C(=O)N(C)C3CCCCC3)c(C3(c4ccc(F)cc4)CCCC3)n2)CC1 (stereo not drawn) [Example 207, 5-pyrimidinecarboxamide, N-cyclohexyl-4-[1-(4-fluorophenyl)cyclopentyl]-N-methyl-2-[(4-methylcyclohexyl)amino]-]
558 nM | CC1CCN(c2ncc(C(=O)N(C)C3CCCCC3)c(C3(c4ccc(F)cc4)CCCC3)n2)CC1 [Example 208, 5-pyrimidinecarboxamide, N-cyclohexyl-4-[1-(4-fluorophenyl)cyclopentyl]-N-methyl-2-(4-methyl-1-piperidinyl)-]
702 nM | CN(C(=O)c1cnc(NC2CCCC2)nc1C1(c2ccc(F)cc2)CCCC1)C1CCCCC1 [Example 209, 5-pyrimidinecarboxamide, N-cyclohexyl-2-(cyclopentylamino)-4-[1-(4-fluorophenyl)cyclopentyl]-N-methyl-]
375 nM | CC1CCC(Nc2ncc(C(=O)N3CCc4ccccc4C3)c(C3(c4ccc(F)cc4)CCCC3)n2)CC1 (stereo not drawn) [Example 210, isoquinoline, 2-[[4-[1-(4-fluorophenyl)cyclopentyl]-2-[(4-methylcyclohexyl)amino]-5-pyrimidinyl]carbonyl]-1,2,3,4-tetrahydro-]
272 nM | CC1CCCN(c2ncc(C(=O)N3CCc4ccccc4C3)c(C3(c4ccc(F)cc4)CCCC3)n2)C1 (stereo not drawn) [Example 211, isoquinoline, 2-[[4-[1-(4-fluorophenyl)cyclopentyl]-2-(3-methyl-1-piperidinyl)-5-pyrimidinyl]carbonyl]-1,2,3,4-tetrahydro-]
237 nM | CC1CCN(c2ncc(C(=O)N3CCc4ccccc4C3)c(C3(c4ccc(F)cc4)CCCC3)n2)CC1 [Example 212, isoquinoline, 2-[[4-[1-(4-fluorophenyl)cyclopentyl]-2-(4-methyl-1-piperidinyl)-5-pyrimidinyl]carbonyl]-1,2,3,4-tetrahydro-]
680 nM | CCN(C(=O)c1cnc(N2CCCC2)nc1C1(c2ccc(F)cc2)CCCC1)C1CCCCC1 [Example 213, 5-pyrimidinecarboxamide, N-cyclohexyl-N-ethyl-4-[1-(4-fluorophenyl)cyclopentyl]-2-(1-pyrrolidinyl)-]
575 nM | CCN(C(=O)c1cnc(N2CCCC(C)C2)nc1C1(c2ccc(F)cc2)CCCC1)C1CCCCC1 (stereo not drawn) [Example 214, 5-pyrimidinecarboxamide, N-cyclohexyl-N-ethyl-4-[1-(4-fluorophenyl)cyclopentyl]-2-(3-methyl-1-piperidinyl)-]
922 nM | CCN(C(=O)c1cnc(N2CCC(C)CC2)nc1C1(c2ccc(F)cc2)CCCC1)C1CCCCC1 [Example 215, 5-pyrimidinecarboxamide, N-cyclohexyl-N-ethyl-4-[1-(4-fluorophenyl)cyclopentyl]-2-(4-methyl-1-piperidinyl)-]
821 nM | CCC(C)Nc1ncc(C(=O)N(CC)C2CCCCC2)c(C2(c3ccc(F)cc3)CCCC2)n1 (stereo not drawn) [Example 216, 5-pyrimidinecarboxamide, N-cyclohexyl-N-ethyl-4-[1-(4-fluorophenyl)cyclopentyl]-2-[(1-methylpropyl)amino]-]
482 nM | CCN(C(=O)c1cnc(NC2CCCC2)nc1C1(c2ccc(F)cc2)CCCC1)C1CCCCC1 [Example 217, 5-pyrimidinecarboxamide, N-cyclohexyl-2-(cyclopentylamino)-N-ethyl-4-[1-(4-fluorophenyl)cyclopentyl]-]
866 nM | CC1CCN(c2ncc(C(=O)N3CCCC(C)C3)c(C3(c4ccc(F)cc4)CCCC3)n2)CC1 (stereo not drawn) [Example 218, piperidine, 1-[[4-[1-(4-fluorophenyl)cyclopentyl]-2-(4-methyl-1-piperidinyl)-5-pyrimidinyl]carbonyl]-3-methyl-]
334 nM | CC1CCC(Nc2ncc(C(=O)N(C)CCc3ccccc3)c(C3(c4ccc(F)cc4)CCCC3)n2)CC1 (stereo not drawn) [Example 219, 5-pyrimidinecarboxamide, 4-[1-(4-fluorophenyl)cyclopentyl]-N-methyl-2-[(4-methylcyclohexyl)amino]-N-(2-phenylethyl)-]
169 nM | CN(CCc1ccccc1)C(=O)c1cnc(N2CCCC2)nc1C1(c2ccc(F)cc2)CCCC1 [Example 220, 5-pyrimidinecarboxamide, 4-[1-(4-fluorophenyl)cyclopentyl]-N-methyl-N-(2-phenylethyl)-2-(1-pyrrolidinyl)-]
356 nM | CC1CCCN(c2ncc(C(=O)N(C)CCc3ccccc3)c(C3(c4ccc(F)cc4)CCCC3)n2)C1 (stereo not drawn) [Example 221, 5-pyrimidinecarboxamide, 4-[1-(4-fluorophenyl)cyclopentyl]-N-methyl-2-(3-methyl-1-piperidinyl)-N-(2-phenylethyl)-]
273 nM | CC1CCN(c2ncc(C(=O)N(C)CCc3ccccc3)c(C3(c4ccc(F)cc4)CCCC3)n2)CC1 [Example 222, 5-pyrimidinecarboxamide, 4-[1-(4-fluorophenyl)cyclopentyl]-N-methyl-2-(4-methyl-1-piperidinyl)-N-(2-phenylethyl)-]
675 nM | CCC(C)Nc1ncc(C(=O)N(C)CCc2ccccc2)c(C2(c3ccc(F)cc3)CCCC2)n1 (stereo not drawn) [Example 223, 5-pyrimidinecarboxamide, 4-[1-(4-fluorophenyl)cyclopentyl]-N-methyl-2-[(1-methylpropyl)amino]-N-(2-phenylethyl)-]
452 nM | CCN(C)C(=O)c1cnc(NC2CCC(C)CC2)nc1C1(c2ccc(F)cc2)CCCC1 (stereo not drawn) [Example 225, 5-pyrimidinecarboxamide, N-ethyl-4-[1-(4-fluorophenyl)cyclopentyl]-N-methyl-2-[(4-methylcyclohexyl)amino]-]
505 nM | CCN(C)C(=O)c1cnc(N2CCCC(C)C2)nc1C1(c2ccc(F)cc2)CCCC1 (stereo not drawn) [Example 226, 5-pyrimidinecarboxamide, N-ethyl-4-[1-(4-fluorophenyl)cyclopentyl]-N-methyl-2-(3-methyl-1-piperidinyl)-]
882 nM | CCN(C)C(=O)c1cnc(N2CCC(C)CC2)nc1C1(c2ccc(F)cc2)CCCC1 [Example 227, 5-pyrimidinecarboxamide, N-ethyl-4-[1-(4-fluorophenyl)cyclopentyl]-N-methyl-2-(4-methyl-1-piperidinyl)-]
637 nM | CCN(Cc1ccccc1)C(=O)c1cnc(NC2CCC(C)CC2)nc1C1(c2ccc(F)cc2)CCCC1 (stereo not drawn) [Example 228, 5-pyrimidinecarboxamide, N-ethyl-4-[1-(4-fluorophenyl)cyclopentyl]-2-[(4-methylcyclohexyl)amino]-N-(phenylmethyl)-]
369 nM | CCN(Cc1ccccc1)C(=O)c1cnc(N2CCCC(C)C2)nc1C1(c2ccc(F)cc2)CCCC1 (stereo not drawn) [Example 229, 5-pyrimidinecarboxamide, N-ethyl-4-[1-(4-fluorophenyl)cyclopentyl]-2-(3-methyl-1-piperidinyl)-N-(phenylmethyl)-]
168 nM | CCN(Cc1ccccc1)C(=O)c1cnc(N2CCC(C)CC2)nc1C1(c2ccc(F)cc2)CCCC1 [Example 230, 5-pyrimidinecarboxamide, N-ethyl-4-[1-(4-fluorophenyl)cyclopentyl]-2-(4-methyl-1-piperidinyl)-N-(phenylmethyl)-]
786 nM | CCC(C)Nc1ncc(C(=O)N(CC)Cc2ccccc2)c(C2(c3ccc(F)cc3)CCCC2)n1 (stereo not drawn) [Example 231, 5-pyrimidinecarboxamide, N-ethyl-4-[1-(4-fluorophenyl)cyclopentyl]-2-[(1-methylpropyl)amino]-N-(phenylmethyl)-]
